Experiments:
[1] = refractive index (Na D-line) (dimensionless); conditions: 101.33 kPa, Liquid, Standard Abbe refractometry
[2] = refractive index (Na D-line) (dimensionless); φn = volume fraction of the nth substance listed; conditions: 101 kPa, Liquid, Standard Abbe refractometry

CCCC[n+]1cccc(C)c1.F[B-](F)(F)F [1-butyl-3-methylpyridinium tetrafluoroborate]
[1]
Conditions	refractive index
293.15 K	1.45248
303.15 K	1.44976
313.15 K	1.44706
323.15 K	1.44425

CCCC[n+]1cccc(C)c1.F[B-](F)(F)F [1-butyl-3-methylpyridinium tetrafluoroborate] + CCO
[2]
Conditions	refractive index
293.15 K, φ1 = 0.0895	1.3713
293.15 K, φ1 = 0.1467	1.3773
293.15 K, φ1 = 0.2062	1.38325
293.15 K, φ1 = 0.2725	1.38979
293.15 K, φ1 = 0.4637	1.4075
293.15 K, φ1 = 0.5588	1.41595
293.15 K, φ1 = 0.6583	1.4245
293.15 K, φ1 = 0.6935	1.42757
293.15 K, φ1 = 0.8285	1.43878
293.15 K, φ1 = 0.883	1.44311
293.15 K, φ1 = 0.928	1.4467
293.15 K, φ1 = 0.9641	1.44963
293.15 K, φ1 = 1	1.45248
303.15 K, φ1 = 0.0891	1.3672
303.15 K, φ1 = 0.1461	1.37333
303.15 K, φ1 = 0.2054	1.3794
303.15 K, φ1 = 0.2716	1.38602
303.15 K, φ1 = 0.4626	1.404
303.15 K, φ1 = 0.5577	1.41257
303.15 K, φ1 = 0.6572	1.42134
303.15 K, φ1 = 0.6925	1.42444
303.15 K, φ1 = 0.8278	1.43584
303.15 K, φ1 = 0.8825	1.44031
303.15 K, φ1 = 0.9277	1.4439
303.15 K, φ1 = 0.964	1.4469
303.15 K, φ1 = 1	1.44976
313.15 K, φ1 = 0.0887	1.36314
313.15 K, φ1 = 0.1477	1.36964
313.15 K, φ1 = 0.2047	1.37558
313.15 K, φ1 = 0.2706	1.3823
313.15 K, φ1 = 0.4614	1.40055
313.15 K, φ1 = 0.5565	1.40924
313.15 K, φ1 = 0.6561	1.4182
313.15 K, φ1 = 0.6914	1.42134
313.15 K, φ1 = 0.8271	1.43292
313.15 K, φ1 = 0.882	1.43752
313.15 K, φ1 = 0.9273	1.44114
313.15 K, φ1 = 0.9638	1.44418
313.15 K, φ1 = 1	1.44706
323.15 K, φ1 = 0.0883	1.35913
323.15 K, φ1 = 0.147	1.36572
323.15 K, φ1 = 0.2037	1.37173
323.15 K, φ1 = 0.2695	1.37856
323.15 K, φ1 = 0.4599	1.39714
323.15 K, φ1 = 0.555	1.40599
323.15 K, φ1 = 0.6548	1.41504
323.15 K, φ1 = 0.6902	1.41823
323.15 K, φ1 = 0.8263	1.42988
323.15 K, φ1 = 0.8814	1.43448
323.15 K, φ1 = 0.9269	1.43827
323.15 K, φ1 = 0.9636	1.44135
323.15 K, φ1 = 1	1.44425

CCCC[n+]1cccc(C)c1.F[B-](F)(F)F [1-butyl-3-methylpyridinium tetrafluoroborate] + CO
[2]
Conditions	refractive index
293.15 K, φ1 = 0.0958	1.34245
293.15 K, φ1 = 0.2025	1.35728
293.15 K, φ1 = 0.2756	1.36702
293.15 K, φ1 = 0.3528	1.37693
293.15 K, φ1 = 0.4508	1.38917
293.15 K, φ1 = 0.5501	1.40126
293.15 K, φ1 = 0.6751	1.416
293.15 K, φ1 = 0.7686	1.42667
293.15 K, φ1 = 0.828	1.43333
293.15 K, φ1 = 0.8763	1.43873
293.15 K, φ1 = 0.9159	1.44307
293.15 K, φ1 = 0.9334	1.445
293.15 K, φ1 = 0.9732	1.44949
293.15 K, φ1 = 1	1.45248
303.15 K, φ1 = 0.0958	1.33885
303.15 K, φ1 = 0.2025	1.35407
303.15 K, φ1 = 0.2756	1.364
303.15 K, φ1 = 0.3528	1.37406
303.15 K, φ1 = 0.4508	1.38641
303.15 K, φ1 = 0.5501	1.39855
303.15 K, φ1 = 0.6751	1.41337
303.15 K, φ1 = 0.7686	1.42402
303.15 K, φ1 = 0.828	1.43069
303.15 K, φ1 = 0.8763	1.43606
303.15 K, φ1 = 0.9159	1.44042
303.15 K, φ1 = 0.9334	1.44233
303.15 K, φ1 = 0.9732	1.4468
303.15 K, φ1 = 1	1.44976
313.15 K, φ1 = 0.0948	1.33503
313.15 K, φ1 = 0.2006	1.3505
313.15 K, φ1 = 0.2756	1.36083
313.15 K, φ1 = 0.3501	1.37069
313.15 K, φ1 = 0.4478	1.38319
313.15 K, φ1 = 0.5471	1.39542
313.15 K, φ1 = 0.6725	1.41032
313.15 K, φ1 = 0.7665	1.4211
313.15 K, φ1 = 0.8262	1.42784
313.15 K, φ1 = 0.875	1.4333
313.15 K, φ1 = 0.915	1.43765
313.15 K, φ1 = 0.9327	1.43961
313.15 K, φ1 = 0.9729	1.44409
313.15 K, φ1 = 1	1.44706
323.15 K, φ1 = 0.0942	1.332
323.15 K, φ1 = 0.1995	1.34774
323.15 K, φ1 = 0.2718	1.35784
323.15 K, φ1 = 0.3485	1.3681
323.15 K, φ1 = 0.4461	1.38056
323.15 K, φ1 = 0.5454	1.39283
323.15 K, φ1 = 0.6709	1.40773
323.15 K, φ1 = 0.7652	1.41853
323.15 K, φ1 = 0.8253	1.42521
323.15 K, φ1 = 0.8742	1.43058
323.15 K, φ1 = 0.9144	1.43492
323.15 K, φ1 = 0.9322	1.43687
323.15 K, φ1 = 0.9727	1.44133
323.15 K, φ1 = 1	1.44425

CCCC[n+]1ccc(C)cc1.F[B-](F)(F)F [1-butyl-4-methylpyridinium tetrafluoroborate]
[1]
Conditions	refractive index
293.15 K	1.45386
303.15 K	1.45114
313.15 K	1.44841
323.15 K	1.44571

CCCC[n+]1ccccc1.F[B-](F)(F)F [1-butylpyridinium tetrafluoroborate]
[1]
Conditions	refractive index
293.15 K	1.44719
303.15 K	1.44454
313.15 K	1.4419
323.15 K	1.43924

— the NIST ThermoML archive (doi:10.1016/j.tca.2013.08.016)
